# In patent publication US9127079B2, “Inhibitors of phosphatase and tensin homolog (PTEN) conjugates” (THE UNIVERSITY OF BRITISH COLUMBIA, priority 2009, dated 2015):
# What was measured:
# [1] = Forelimb grip strength after cerebral ischemia; format: in vivo, rat; conditions: before vs 28 days after ischemia
# Description: (§1) Adult male Sprague-Dawley rats (weight 200 g) were used in this study. All surgical procedures were performed using sterile/aseptic techniques in accordance with Institutional guidelines. Rats were anesthetized with chloral hydrate (0.4 g/kg IP) and subjected to cerebral ischemia. Ligation of the right middle cerebral artery (MCA) and bilateral common carotids arteries (CCAs) was performed by methods described previously (Shyu et al. 2005). The CCAs were clamped with non-traumatic arterial clips. The right MCA was ligated with a 10-0 nylone suture. After 90 min of ischemia, the suture on the MCA and the arterial clips on the CCAs were removed to allow reperfusion. Core body temperature was monitored with a thermistor probe (Hewlett-Packard™ Model 21090A probe, Hewlett-Packard Company™, Andover, Mass.), and maintained at 37° C. with a heating pad during anesthesia. […]
# (§2) Behavioral assessments were measured on day 28 after stroke. […] The baseline-test scores were recorded in order to normalize those taken after cerebral ischemia. The elevated body swing test (EBST) was used to assess body asymmetry after MCA ligation and evaluated quantitatively as previously described (Shyu et al. 2004). […] The frequency of initial head swing contra-lateral to the ischemic side was counted in twenty continuous tests and was normalized, as follows: % recovery=[1−(lateral swings in twenty tests−10)/10×100%. […]
# [2] = Locomotor activity after cerebral ischemia; format: in vivo, rat; conditions: vs other groups
# Description: as §1, §2
# [3] = Transgenic G37R SOD1 mouse model of ALS: survival and behavioural outcomes; format: in vivo; conditions: IP 16 mg/kg 3 times a week
# Description: Transgenic mice expressing G37R SOD1 (G37R) at almost 8 months of age and having no apparent pathologic symptoms were double blinded with a designated code and divided into 3 groups of 12 mice (6 male and 6 female) maintained on a pure C57BL6 background in the local animal facility under a 12 h light cycle with food and drinking water ad libitum. All mice were genotyped by PCR. The use of animals as described in this study was carried out according to The Guide to the Care and Use of Experimental Animals of the Canadian Council on Animal Care. […].
# Body weight and neurological scores such as HLR scores and Rota Rod functions were regularly monitored and recorded. End points and survival dates were determined when mice were not able to stand up within 20 s when moved on the side. Disabled mice were anesthetized and sacrificed according to the guidelines of The University of British Columbia for the care and use of laboratory animals. All collected data were subjected to statistical analysis using Kaplan-Meier plots and Log-rank tests.
# PTEN = assay: Western blotting of nuclear fractions from cultured neurons: PTEN nuclear translocation; format: cell-based, rat; conditions: NMDA stimulation
# Description: Dissociated cultures of rat cortical or hippocampal neurons were prepared from 18-d-old Sprague Dawley rat embryos as described previously (Mielke and Wang 2005). To obtain mixed cultures enriched with neurons, uridine (10 μM) and 5-Fluor-T-deoxyuridine (10 μM) were added to the culture medium at 3 d in vitro (DIV) and maintained for 48 h to inhibit non-neuronal cell proliferation before the cultures were returned to the normal culture medium. Mature neurons (12-14 DIV) were used for experiments.
# In order to induce excitotoxicity, 12-14 DIV cultured neurons were washed and transferred to Mg2+-free extracellular solution (ECS) containing the following (in mM): 25 HEPES acid, 140 NaCl, 33 glucose, 5.4 KCl, and 1.3 CaCl2, with pH 7.35 and osmolarity 320-330 mOsm. […]
# For western blotting, 10 μg of the nuclear extract or 40 μg of total cell lysate (solubilized by 1% SDS, 1 mM EGTA, 1 mM EDTA, 1 mM DTT, 2 mM sodium orthovanadate, and protease inhibitors cocktail in PBS) from each treatment condition was separated with SDS-PAGE, transferred onto a polyvinylidene difluoride (PVDF) membrane, and probed with the relevant antibodies. […] Band intensities were quantified using NIH ImageJ™ software and normalized to the quantity of a nuclear marker or β-tubulin in each sample lane.
substance,measurement,setting,value
KEIVSRNKRRYQED-YGRKKRRQRRR (KEIVSRNKRRYQEDYGRKKRRQRRR; PTEN K13 interference peptide conjugated to TAT protein transduction domain) [Peptide-K13],forelimb grip strength ratio,[1]; given 2 hours after ischemia,much better strength ratio
same,forelimb grip strength ratio,[1]; given 6 hours after ischemia,much better strength ratio
same,"locomotor activities (vertical activity, vertical time, number of vertical movements)",[2]; given 2 hours after ischemia,significantly better
same,"locomotor activities (vertical activity, vertical time, number of vertical movements)",[2]; given 6 hours after ischemia,significantly better
same,behavioural outcomes,[3]; female ALS mice,improves behavioural outcomes
same,survival,[3]; female ALS mice,prolongs the survival
same,survival,[3]; male ALS mice,no statistically significant improvement
same,PTEN nuclear translocation (western blotting of nuclear fractions),PTEN,prevents PTEN nuclear translocation
